Results: US4927851A, “Analogs of mevalonolactone and derivatives thereof” (Sandoz Pharm. Corp., priority 1988, dated 1990)
Counter-ions that a name gives are not always drawn.

Experiments:
HMG-CoA reductase = target: T1, HMG-CoA reductase (Rattus norvegicus, UniProt P51639); test: Test A. In Vitro Microsomal Assay of HMG-CoA Reductase Inhibition; type: biochemical; conditions: test substance 0.0005-2,000 μmolar, read-out: IC50, concentration producing a 50% inhibition of HMG-CoA reductase activity
T1 construct: from tissue; host or cells: microsomes (printed); rat liver, Sprague-Dawley, by own knowledge of the cited method
T1 sequence (P51639 1-887): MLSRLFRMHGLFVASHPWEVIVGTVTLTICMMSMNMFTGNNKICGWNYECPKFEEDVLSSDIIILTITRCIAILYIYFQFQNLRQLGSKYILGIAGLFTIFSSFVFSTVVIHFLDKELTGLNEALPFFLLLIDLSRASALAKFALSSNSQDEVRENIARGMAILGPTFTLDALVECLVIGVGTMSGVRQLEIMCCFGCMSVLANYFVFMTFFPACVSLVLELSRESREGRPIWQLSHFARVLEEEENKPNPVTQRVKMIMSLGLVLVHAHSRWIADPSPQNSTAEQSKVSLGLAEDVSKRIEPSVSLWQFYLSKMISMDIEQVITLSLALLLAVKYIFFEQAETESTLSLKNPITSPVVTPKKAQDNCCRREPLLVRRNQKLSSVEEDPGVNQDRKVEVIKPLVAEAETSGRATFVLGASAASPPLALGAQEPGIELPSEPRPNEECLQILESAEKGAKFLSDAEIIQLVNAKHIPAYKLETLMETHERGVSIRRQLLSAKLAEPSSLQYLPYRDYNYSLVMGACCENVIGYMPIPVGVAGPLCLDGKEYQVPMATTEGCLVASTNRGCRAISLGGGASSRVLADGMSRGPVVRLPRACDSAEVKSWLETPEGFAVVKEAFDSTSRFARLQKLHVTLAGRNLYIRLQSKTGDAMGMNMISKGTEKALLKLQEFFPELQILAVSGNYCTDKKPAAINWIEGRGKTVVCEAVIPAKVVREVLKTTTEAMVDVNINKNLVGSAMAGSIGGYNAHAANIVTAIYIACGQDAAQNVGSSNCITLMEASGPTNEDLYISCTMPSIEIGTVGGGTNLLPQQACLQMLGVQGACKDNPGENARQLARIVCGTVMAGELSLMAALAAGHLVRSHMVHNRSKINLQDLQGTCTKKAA
Procedure: Test A. In Vitro Microsomal Assay of HMG-CoA Reductase Inhibition:
This test is carried out precisely as described in column 53 of U.S. Pat. No. 4,613,610 and on page 30 of World (PCT) Published Patent Application No. 84/02131, both of which are hereby incorporated by reference as if set forth herein in their entirety. The concentration of the test substance (compound of Formula I) in the assay system is 0.0005-2,000 μmolar. The obtained IC50 is the concentration of the test substance in the assay system observed or calculated to produce a 50% inhibition of HMG-CoA reductase activity.

[1] = tested on: 3β-hydroxysterol synthesis; test: Test B. In Vivo Cholesterol Biosynthesis Inhibition Test; conditions: Rattus norvegicus, po; rats, orally administered, 0.01-200 mg/kg body weight; read-out: ED50, dose producing a 50% inhibition of 3β-hydroxysterol synthesis
Procedure: Test B. In Vivo Cholesterol Biosynthesis Inhibition Test:
In this test the rats are orally administered the test substance (compound of Formula I) at dose of 0.01-200 mg/kg. body weight. The obtained ED50 is the dose of the test substance observed or calculated to produce a 50% inhibition of 3β-hydroxysterol synthesis.

| Compound | IC50 (HMG-CoA reductase) [nM] | ED50 [1] [mg/kg] |
| --- | --- | --- |
| CC(C)c1sc(C(C)C)c(-c2ccc(F)cc2)c1/C=C/C(O)CC(O)CC(=O)O (centres unmarked) [Example 8 (sodium salt)] | 27 | 0.076 |
| CC[C@H](C)C(=O)O[C@H]1CCC=C2C=C[C@H](C)[C@H](CC[C@@H]3C[C@@H](O)CC(=O)O3)[C@H]21 [Compactin, reference compound] |  | 3.5 |
| CC[C@H](C)C(=O)O[C@H]1C[C@@H](C)C=C2C=C[C@H](C)[C@H](CC[C@@H]3C[C@@H](O)CC(=O)O3)[C@H]21 [Mevinolin, reference compound] |  | 0.41 |

Continued, in another order:

| IC50 (HMG-CoA reductase) [nM] | Compound | ED50 [1] [mg/kg] |
| --- | --- | --- |
| 190 | CC(C)c1oc(-c2ccccc2)c(-c2ccc(F)cc2)c1/C=C/C(O)CC(O)CC(=O)O (centres unmarked) [Example 5b] | 0.35 |
| 28 | CC(C)c1sc(-c2ccccc2)c(-c2ccccc2)c1/C=C/C(O)CC(O)CC(=O)O (centres unmarked) [Example 5c, sodium(E)-7-(4-phenyl-2-isopropyl-5-phenylthien-3-yl)-3,5-dihydroxy-hept-6-enoate] | 0.169 |
